Experimental data published in patent publication US8410284B2, “Cyclic benzimidazole derivatives useful as anti-diabetic agents” (Merck Sharp & Dohme Corp, priority 2008, dated 2013).
Structures can show the parent of a compound that is named as a salt.

Tests used:
ob/ob and db/db mice = settings: following 8 weeks of administration; cited from earlier work
[1] = target: recombinant human AMPK complex 1 (containing α1β1γ1) (Homo sapiens, UniProt Q13131+Q9Y478); assay: In vitro AMPK activation assay (AMPKSAMSF); format: biochemical; settings: recombinant human AMPK complex 1 (α1β1γ1); for Emax: read-out: maximum AMP activation
Sequence of recombinant human AMPK complex 1 (containing α1β1γ1) (Q13131 whole entry): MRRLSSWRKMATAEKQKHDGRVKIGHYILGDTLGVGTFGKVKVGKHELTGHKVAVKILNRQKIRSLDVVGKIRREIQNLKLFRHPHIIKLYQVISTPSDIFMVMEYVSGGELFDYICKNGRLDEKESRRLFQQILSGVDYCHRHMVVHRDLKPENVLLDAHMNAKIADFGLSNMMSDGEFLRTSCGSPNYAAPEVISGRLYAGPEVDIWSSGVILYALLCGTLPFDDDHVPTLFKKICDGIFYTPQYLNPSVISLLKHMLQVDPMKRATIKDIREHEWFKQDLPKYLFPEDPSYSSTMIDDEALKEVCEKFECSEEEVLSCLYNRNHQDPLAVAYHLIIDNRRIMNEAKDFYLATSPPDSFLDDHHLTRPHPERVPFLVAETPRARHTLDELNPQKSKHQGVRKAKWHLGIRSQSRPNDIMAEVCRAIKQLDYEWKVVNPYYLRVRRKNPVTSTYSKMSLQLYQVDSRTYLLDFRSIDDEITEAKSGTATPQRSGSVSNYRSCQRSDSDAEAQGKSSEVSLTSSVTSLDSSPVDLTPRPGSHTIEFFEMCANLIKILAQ
Sequence of recombinant human AMPK complex 1 (containing α1β1γ1) (Q9Y478 whole entry): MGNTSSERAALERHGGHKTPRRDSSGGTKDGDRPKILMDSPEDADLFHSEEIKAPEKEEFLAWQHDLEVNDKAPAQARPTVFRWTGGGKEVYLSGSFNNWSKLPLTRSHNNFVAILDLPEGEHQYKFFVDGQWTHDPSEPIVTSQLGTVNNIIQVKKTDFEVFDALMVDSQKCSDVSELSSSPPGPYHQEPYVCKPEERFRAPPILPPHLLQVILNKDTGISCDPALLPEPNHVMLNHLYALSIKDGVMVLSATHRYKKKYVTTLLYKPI
Sequence of recombinant human AMPK complex 1 (containing α1β1γ1) (P54619 whole entry partner): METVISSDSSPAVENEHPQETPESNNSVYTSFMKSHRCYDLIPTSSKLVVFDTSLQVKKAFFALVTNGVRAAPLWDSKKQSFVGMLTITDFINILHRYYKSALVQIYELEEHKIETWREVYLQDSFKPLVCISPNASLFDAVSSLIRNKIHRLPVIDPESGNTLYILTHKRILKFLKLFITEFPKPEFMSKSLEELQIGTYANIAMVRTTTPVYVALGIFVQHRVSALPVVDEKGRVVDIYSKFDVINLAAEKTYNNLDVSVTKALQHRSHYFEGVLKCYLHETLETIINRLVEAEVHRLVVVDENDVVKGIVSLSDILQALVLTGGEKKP
Method: AMPKSAMSF (In Vitro AMPK Activation Assay)
The recombinant human AMPK complex 1 (containing α1β1γ1) was obtained from baculovirus expression system. Recombinant viruses were generated by cotransfection of AMPK/pBacPak9 clones with Baculogold baculovirus DNA (Pharmingen) in spodoptera frugiperda 21 cells according to the manufacturer's instructions. Each round of virus amplification was performed for 5 days in Grace's medium containing 10% serum. Virus that had been subjected to three rounds of amplification was used for all protein production procedures. To express the AMPK complex, sf21 cells were adapted to serum free medium (SF900 II, Invitrogen) by sequential dilution from serum containing stocks into SF900 II medium and maintained in shaker flasks at 90 rpm at 27° C. The recombinant AMPK enzyme complex was produced by triple infection, one recombinant virus for each of the subunits, in sf21 cells under serum free conditions. Cells were infected in log phase, 1×10^6 cells/ml, at a multiplicity of infection of ˜5. Cells were harvested by centrifugation at 10,000×g for 15 minutes after 72 hours of infection with viruses. The insect cell pellet from 2 liters of culture was resuspended in 50 ml lysis buffer (20 mM Tris-HCl, 50 mM NaCl, 50 mM NaF, 30 mM Na PPi, 0.25 M sucrose, 10 mM ZnCl2, 2 mM DTT, 0.4 mg/ml digitonin) and subjected to two cycles of freeze-thaw lysis in a dry-ice ethanol bath. Insoluble material was removed by centrifugation at 10,000×g and the supernatant was fractionated with use of polyethylene glycol (PEG). The protein fraction precipitating between 2.5 and 6% PEG was used for further purification using a Blue-Sepharose step (Zhou et al, J. Clin. Invest. 108, 1167-1174, 2001).
The total in vitro AMPK activation assay volume is 50 μl in a 96-well plate. The reaction mixture contained 100 μM ATP (0.5 μCi ^33P-ATP per reaction), and 50 μM SAMS (HMRSAMSGLHLVKRR) in a buffer (20 mM HEPES, pH 7.0, 5 mM MgCl2, 0.01% Brij35). The reaction was initiated with addition of the enzyme. After 30-minute incubation at 30° C., the reaction was stopped by addition of 80 μl 1% H3PO4. Aliquots (100 μl) were transferred to 96-well MultiScreen plates (MAPHNOB50; Millipore Corp., Bedford, Mass., USA). The plate was washed three times with 1% H3PO4 followed by detection in a Top-count. The counts per minute from the basal activity (the reaction without activator) was subtracted from each well and the data were expressed as % maximum AMP activation followed by EC50 calculation.

SMILES	melting point [°C]	blood glucose reduction (ob/ob and db/db mice) [%]	EC50 [1] [nM]	% Maximum AMP Activation of human AMPK Complex 1 ([1]; basal activity subtracted) [%]	Emax [1] [%]
Cc1ccc(Oc2nc3cc(-c4ccc(-c5ccccc5)cc4)c(Cl)cc3[nH]2)cc1P(=O)(O)O (as salt: salt) [Example 1, ((5-(4-Biphenyl)-6-chloro-1H-benzimidazol-2-yl)oxo)-4-methylphen-3-ylphosphonic acid]	225 to 228	–	–	–	–
NC(=O)c1ncn([C@@H]2O[C@H](CO)[C@@H](O)[C@H]2O)c1N [AICAR]	–	35	–	–	–
CCOC(=O)CNP(=O)(NCC(=O)OCC)c1cc(Oc2nc3cc(-c4ccc(C5CCCCC5)cc4)c(Cl)cc3[nH]2)ccc1C [Example 28, {[6-Chloro-5-(4-cyclohexylphenyl)-1H-benzoimidazol-2-yl]oxo}-4-methylphen-3-ylphosphono-bis-2-amino-ethanoic acid ethyl ester]	–	–	–	–	> 80

Second part, led by results:

melting point [°C]	SMILES	blood glucose reduction (ob/ob and db/db mice) [%]	EC50 [1] [nM]	% Maximum AMP Activation of human AMPK Complex 1 ([1]; basal activity subtracted) [%]	Emax [1] [%]
199 to 205	O=P(O)(O)c1cccc(Oc2nc3cc(-c4ccc(-c5ccccc5)cc4)c(Cl)cc3[nH]2)c1 [Example 2, ((5-(4-Biphenyl)-6-chloro-1H-benzimidazol-2-yl)oxo)phen-3-ylphosphonic acid]	–	2.5	205	> 80
> 220	Cc1ccc(Cc2nc3cc(-c4ccc(-c5ccccc5)cc4)c(Cl)cc3[nH]2)cc1P(=O)(O)O [Example 11, {5-[(5-biphenyl-4-yl-6-chloro-1H-benzimidazol-2-yl)methyl]-2-methylphenyl}phosphonic acid]	–	–	–	> 80
